Experimental data from patent publication US20220178900A1, “BIORELEVANT COMPOSITION” (BIORELEVANT.COM LTD., priority 2019, published 2022).

How the values were obtained:
Assay type in all cases: physicochemical
[1] = Dissolution in biorelevant fed state gastric media (FEDGAS), USP 2 Dissolution Apparatus at 75 rpm, HPLC; details: for dissolution in fed state gastric media compared with fasted state gastric media: fed state gastric media across pH 6 to pH 3; for pH dependence of dissolution profiles in fed state gastric media: fed state media pH 6, pH 5, pH 3
Description: In the case studies from 1 to 4, FEDGAS media at pH 6, pH 5 and pH 3 were prepared by adding the appropriate amount of purified water in a suitable container, adding the corresponding buffer concentrate and adding the appropriate amount of biorelevant precursor concentrate and mixing with a magnetic stirrer until homogeneous.
(§1) Three biorelevant fed state gastric media at pH 6, pH 5 and pH 3 using the composition in Table 5 were produced. The media at these three pHs were characterised by measuring pH, buffer capacity, particle size (Z-average and polydispersity using Nanosizer) and surface tension (Kruss surface tension K6). The media were stable at time zero and physically stable after 24 hours. Similarly, the key physicochemical properties were unchanged after 24 hours. The dissolution of exemestane (4 tablet×25 mg tablets) in the media was carried out using USP 2 Dissolution Apparatus at 75 rpm (n=6 vessels). Samples of the three biorelevant media were taken from the dissolution vessels and filtered through a 0.45 micrometer nylon filter with prefilter at 5 mins, 10 mins, 15 mins, 20 mins, 25 mins, 30 mins, 45 mins, 60 mins, 90 mins and 120 mins and analysed for exemestane content by HPLC. […] Within 30 minutes more than 80% of the drug was dissolved across the three media.

[2] = Dissolution in fasted state gastric media (control experiment); details: for drug dose dissolved: after 2 hours of dissolution, fasted state gastric media
Description: as §1
The dissolution of Sturgeron (15 mg cinnarizine immediate release tablets) was tested in a fasted gastric media (control experiment) and compared with fed gastric media at pH 6, pH 5 and pH 3 using the same dissolution set up as described previously. The dissolution profile of this drug product in the fasted gastric media indicates this basic drug cinnarizine dissolves rapidly in the fasted stomach. […]
The dissolution of danazol (100 mg) hard gelatine capsules was carried out in fasted state gastric media (control) and compared with biorelevant fed state gastric media at pH 6, pH 4.5 and pH 3 as described using the set up and method in the Case Study 1. […] Case Study 6—Examining Physicochemical Properties of FEDGAS Dissolution Media Stored for 72 Hrs at Room Temperature with Dissolution of Megesterol Acetate Capsules FEDGAS media at pH 6, pH 4.5 and pH 3 were prepared by adding the appropriate amount of water in a suitable container, adding the corresponding buffer concentrate and adding the appropriate amount of readily water dispersible biorelevant precursor concentrate and mixing with a magnetic stirrer until homogeneous. […]

[3] = Dissolution in biorelevant fed state gastric media (FEDGAS), USP 2 Dissolution Apparatus at 75 rpm, HPLC; details: within 60 minutes; fed state gastric media at pH 6, pH 4.5 and pH 3
[4] = FEDGAS dissolution media stored for 72 hrs at room temperature; details: 160 mg capsules in 900 mL; FEDGAS pH 6, pH 4.5, pH 3; room temperature storage
Description: The dissolution of danazol (100 mg) hard gelatine capsules was carried out in fasted state gastric media (control) and compared with biorelevant fed state gastric media at pH 6, pH 4.5 and pH 3 as described using the set up and method in the Case Study 1. Referring to FIG. 6, the dissolution in fasted gastric media is negligible even after 2 hours of dissolution. Less than 0.2% of the drug dose is dissolved even after 2 hours of dissolution. […] Dissolution reaches about 55% of the dosage form within 60 minutes in fed state gastric media at pH 6, pH4.5 and pH 3 respectively. Case Study 6—Examining Physicochemical Properties of FEDGAS Dissolution Media Stored for 72 Hrs at Room Temperature with Dissolution of Megesterol Acetate Capsules FEDGAS media at pH 6, pH 4.5 and pH 3 were prepared by adding the appropriate amount of water in a suitable container, adding the corresponding buffer concentrate and adding the appropriate amount of readily water dispersible biorelevant precursor concentrate and mixing with a magnetic stirrer until homogeneous. The three media were stored at room temperature for up to 72 hours. […] The pH, buffer capacity, surface tension and particle size (Z-average) of the FEDGAS pH 6 and FEDGAS pH 3 were measured at t=0 and at t=72 hours. […]

| SMILES | dissolution in fed state gastric media compared with fasted state gastric media [1] | pH dependence of dissolution profiles in fed state gastric media [1] | drug dose dissolved [2] | further results |
| --- | --- | --- | --- | --- |
| C(=C\c1ccccc1)/CN1CCN(C(c2ccccc2)c2ccccc2)CC1 [cinnarizine] | slower drug dissolution in all fed state gastric media | faster at lower pH |  | drug dissolved ([2]; within 30 minutes, fasted gastric media): ~90% |
| C#C[C@]1(O)CC[C@H]2[C@@H]3CCC4=Cc5oncc5C[C@]4(C)[C@H]3CC[C@@]21C [danazol] | considerably more rapidly |  | Less than 0.2% | Dissolution, % of the dosage form [3]: about 55% |
| CC(=O)O[C@]1(C(C)=O)CC[C@H]2[C@@H]3C=C(C)C4=CC(=O)CC[C@]4(C)[C@H]3CC[C@@]21C [megesterol acetate] |  |  |  | dissolution profiles in media stored t=0, 24, 48, 72 hours [4]: identical |

Continued, in another order:

| dissolution in fed state gastric media compared with fasted state gastric media [1] | pH dependence of dissolution profiles in fed state gastric media [1] | drug dose dissolved [2] | SMILES | further results |
| --- | --- | --- | --- | --- |
|  | not sensitive to different pHs |  | C=C1C[C@@H]2[C@H](CC[C@]3(C)C(=O)CC[C@@H]23)[C@@]2(C)C=CC(=O)C=C12 [exemestane] | drug dissolved ([1]; within 30 minutes, across the three fed state media pH 6, pH 5 and pH 3, 4 x 25 mg tablets): more than 80% |
| considerably more rapidly |  | Less than 0.1% | Cc1cccc(Nc2ccccc2C(=O)O)c1C [mefenamic acid] | Dissolution, % of the dosage form ([1]; within 30 minutes, fed state gastric media pH 3): ~10%; Dissolution, % of the dosage form ([1]; within 30 minutes, fed state gastric media pH 5): ~25%; Dissolution, % of the dosage form ([1]; within 30 minutes, fed state gastric media pH 6): about 45% |
